Measurements: patent US10640457B2, “Histone acetyltransferase activators and uses thereof” (The Trustees of Columbia University in the City of New York, priority 2009, dated 2020)

Assays:
[1] = literature [22, 23]; cited from earlier work
[2] = literature [22, 23]; cited from earlier work; remark: listed apart in the source
Solubility observations = format: physicochemical
Sirtuin 1 = biological target: T1, Sirtuin 1 (Homo sapiens, UniProt Q96EB6); experiment: Sirtuin 1 fluorogenic activity assay
T1 sequence (Q96EB6 1-747): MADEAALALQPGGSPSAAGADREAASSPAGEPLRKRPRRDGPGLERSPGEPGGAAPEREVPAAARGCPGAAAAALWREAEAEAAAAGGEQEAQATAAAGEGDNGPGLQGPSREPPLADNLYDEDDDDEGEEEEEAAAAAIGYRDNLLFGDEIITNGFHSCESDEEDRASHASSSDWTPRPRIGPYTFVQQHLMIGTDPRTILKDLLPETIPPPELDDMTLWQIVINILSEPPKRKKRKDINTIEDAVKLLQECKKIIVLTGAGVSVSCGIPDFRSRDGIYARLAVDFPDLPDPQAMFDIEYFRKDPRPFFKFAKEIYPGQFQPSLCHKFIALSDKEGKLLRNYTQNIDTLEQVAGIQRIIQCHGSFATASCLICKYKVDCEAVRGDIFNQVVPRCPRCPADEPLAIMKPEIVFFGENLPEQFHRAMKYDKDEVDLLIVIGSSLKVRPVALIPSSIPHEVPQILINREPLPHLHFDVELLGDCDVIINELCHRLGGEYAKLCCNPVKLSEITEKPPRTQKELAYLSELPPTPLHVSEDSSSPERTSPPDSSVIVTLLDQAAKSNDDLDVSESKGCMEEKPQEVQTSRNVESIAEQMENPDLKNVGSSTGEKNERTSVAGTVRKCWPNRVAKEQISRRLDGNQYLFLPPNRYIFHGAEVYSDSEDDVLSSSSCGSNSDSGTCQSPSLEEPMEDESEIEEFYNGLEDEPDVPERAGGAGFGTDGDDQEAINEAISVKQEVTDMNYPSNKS

Sirtuin 2 = biological target: T2, Sirtuin 2 (Homo sapiens, UniProt Q8IXJ6); experiment: Sirtuin 2 fluorogenic activity assay
T2 sequence (Q8IXJ6 1-389): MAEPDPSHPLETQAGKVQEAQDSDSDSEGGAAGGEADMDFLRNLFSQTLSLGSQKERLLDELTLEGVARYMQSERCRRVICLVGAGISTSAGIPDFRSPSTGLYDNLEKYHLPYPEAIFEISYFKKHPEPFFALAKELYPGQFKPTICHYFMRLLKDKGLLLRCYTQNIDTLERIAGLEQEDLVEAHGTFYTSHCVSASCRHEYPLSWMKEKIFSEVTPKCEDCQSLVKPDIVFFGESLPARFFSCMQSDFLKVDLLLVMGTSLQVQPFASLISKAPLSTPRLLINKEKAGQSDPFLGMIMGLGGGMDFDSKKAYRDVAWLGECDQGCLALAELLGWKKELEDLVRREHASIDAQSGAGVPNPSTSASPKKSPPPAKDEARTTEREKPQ

[3] = literature [P48]; cited from earlier work

Row | SMILES | membrane permeability [1] | solubility [2] | also measured
1 | CCOc1ccccc1C(=O)Nc1ccc(Cl)c(C(F)(F)F)c1 [6J, N-(4-chloro-3-trifluoromethyl-phenyl)-2-ethoxy-benzamide] | membrane-impermeable | insoluble | solubility in H2O (Solubility observations): no solubility
2 | CCCCCCCCCCCCCCCc1cccc(OCC)c1C(=O)Nc1ccc(Cl)c(C(F)(F)F)c1 [CTPB] | membrane-impermeable | insoluble | 
3 | O=C(CCCCCCC(=O)Nc1ccccc1)NO [SAHA, reference compound] |  |  | IC50 (Sirtuin 1): > 10 µM; IC50 (Sirtuin 2): > 10 µM
4 | Cc1cc(-c2ccccc2)nnc1NCCN1CCOCC1 [minaprine] |  |  | brain/blood ratio [3]: > 2
